According to publication PMC8632988, “Inhibition of SYK and cSrc kinases can protect bone and cartilage in preclinical models of osteoarthritis and rheumatoid arthritis” (Scientific Reports, 2021):
Values joined by “and” are separate entries in the source; they are usually repeats but may differ in a detail not shown here. Equal entries are not always repeated.

Test system: DBA/1 mice, CIA model
Experiment: Collagen-induced arthritis model in mice
Format: in vivo, mouse
Details: BID
Experimental: Collagen-induced arthritis (CIA) model was performed at Bolder BioPATH, USA. Study design and animal usage was approved by Bolder BioPATH’s Institutional Animal Care and Use Committee. CIA was induced in 6–7 week old male DBA/1 mice with body weight of 15–26 g (Harlan, Inc) by intradermal injection of Freund’s Complete Adjuvant (Difco) containing bovine type II collagen (Bolder BioPATH) on day 0 and again on day 21 according to the standard protocol. […] After that mice were randomized into six groups: a control group of four, vehicle group and four treatment groups of ten mice each. […] Each paw was scored daily for inflammation. Therapeutic and prophylactic paws were considered. At study termination mice were euthanized by CO2 inhalation followed by cervical dislocation. Fore paws, hind paws, and knees were removed for microscopy.
Mice were weighed on arthritis days 1, 3, 5, 7, 9, and 11 (prior to necropsy). Daily clinical scores were given for each of the paws (right front, left front, right rear, left rear) on days 1–11 using the following criteria:
After 1–2 days in fixative and 4–5 days in 5% formic acid for decalcification, tissues were trimmed, processed for paraffin embedding, sectioned at 8 µm and stained with toluidine blue. Hind paws and knees were embedded and sectioned in the frontal plane. Two joints from each animal were processed for histopathology evaluation. The joints were then scored by two independent readers as indicated below. When scoring, severity of changes as well as number of individual joints affected were considered. When only 1–3 joints of the paws or ankles out of a possibility of numerous metacarpal/metatarsal/digit or tarsal/tibiotarsal joints were affected, an arbitrary assignment of a maximum score of 1, 2 or 3 for parameters below was given depending on severity of changes. If more than 3 joints were involved, the criteria below were applied to the most severely affected/majority of joints.

## COc1cc(Nc2ncnc(Nc3cc4c(cn3)NC(=O)C(C)(C)O4)n2)cc(OC)c1OC [MT-SYK-03]
103 mg/kg PO
  % inhibition to Vehicle, Paw Score Total AUC Sum (d1-11): 12%
103 mg/kg PO, group Mean
  Paw Score Total AUC Sum (d1-11): 28.48
103 mg/kg PO, individual animals
  Paw Score Total AUC Sum (d1-11): 27.25 and 32.38 and 26.00 and 35.88 and 12.50 and 29.00 and 37.38 and 33.00 and 33.88 and 17.50
Day 1, 103 mg/kg PO
  % inhibition to Vehicle, Average Paw Score: 0%
Day 1, 103 mg/kg PO, group Mean
  Average Paw Score Per Arthritis Day (All Paws): 0.80
Day 1, 103 mg/kg PO, individual animals, 103 mg/kg
  Average Paw Score Per Arthritis Day (All Paws): 0.50 and 1.50 and 1.00
Day 2, 103 mg/kg PO
  % inhibition to Vehicle, Average Paw Score: 18%
Day 2, 103 mg/kg PO, group Mean
  Average Paw Score Per Arthritis Day (All Paws): 1.50
Day 2, 103 mg/kg PO, individual animals, 103 mg/kg
  Average Paw Score Per Arthritis Day (All Paws): 1.25 and 2.00 and 1.00 and 2.50 and 1.50 and 0.50
Day 3, 103 mg/kg PO
  % inhibition to Vehicle, Average Paw Score: 15%
Day 3, 103 mg/kg PO, group Mean
  Average Paw Score Per Arthritis Day (All Paws): 2.25
Day 3, 103 mg/kg PO, individual animals, 103 mg/kg
  Average Paw Score Per Arthritis Day (All Paws): 2.25 and 3.00 and 1.25 and 3.25 and 2.00 and 2.75 and 2.50
Day 4, 103 mg/kg PO
  % inhibition to Vehicle, Average Paw Score: 13%
Day 4, 103 mg/kg PO, group Mean
  Average Paw Score Per Arthritis Day (All Paws): 2.75
Day 4, 103 mg/kg PO, individual animals, 103 mg/kg
  Average Paw Score Per Arthritis Day (All Paws): 2.75 and 3.25 and 2.00 and 3.50 and 1.25 and 3.00
Day 5, 103 mg/kg PO
  % inhibition to Vehicle, Average Paw Score: 12%
Day 5, 103 mg/kg PO, group Mean
  Average Paw Score Per Arthritis Day (All Paws): 3.08
Day 5, 103 mg/kg PO, individual animals, 103 mg/kg
  Average Paw Score Per Arthritis Day (All Paws): 3.00 and 3.50 and 2.75 and 3.75 and 1.25 and 4.00 and 2.00
Day 6, 103 mg/kg PO
  % inhibition to Vehicle, Average Paw Score: 11%
Day 6, 103 mg/kg PO, group Mean
  Average Paw Score Per Arthritis Day (All Paws): 3.18
Day 6, 103 mg/kg PO, individual animals, 103 mg/kg
  Average Paw Score Per Arthritis Day (All Paws): 3.00 and 3.50 and 3.75 and 1.25 and 4.00 and 2.25
Day 7, 103 mg/kg PO
  % inhibition to Vehicle, Average Paw Score: 10%
Day 7, 103 mg/kg PO, group Mean
  Average Paw Score Per Arthritis Day (All Paws): 3.28
Day 7, 103 mg/kg PO, individual animals, 103 mg/kg
  Average Paw Score Per Arthritis Day (All Paws): 3.00 and 3.50 and 3.25 and 4.00 and 1.25 and 4.25 and 3.75 and 2.25
Day 8, 103 mg/kg PO
  % inhibition to Vehicle, Average Paw Score: 12%
Day 8, 103 mg/kg PO, group Mean
  Average Paw Score Per Arthritis Day (All Paws): 3.33
Day 8, 103 mg/kg PO, individual animals, 103 mg/kg
  Average Paw Score Per Arthritis Day (All Paws): 3.25 and 3.50 and 4.00 and 1.25 and 4.50 and 3.75 and 4.25 and 2.00
Day 9, 103 mg/kg PO
  % inhibition to Vehicle, Average Paw Score: 13%
Day 9, 103 mg/kg PO, group Mean
  Average Paw Score Per Arthritis Day (All Paws): 3.43
Day 9, 103 mg/kg PO, individual animals, 103 mg/kg
  Average Paw Score Per Arthritis Day (All Paws): 3.25 and 3.75 and 3.50 and 4.25 and 1.50 and 4.50 and 2.00
Day 10, 103 mg/kg PO
  % inhibition to Vehicle, Average Paw Score: 13%
Day 10, 103 mg/kg PO, group Mean
  Average Paw Score Per Arthritis Day (All Paws): 3.53
Day 10, 103 mg/kg PO, individual animals, 103 mg/kg
  Average Paw Score Per Arthritis Day (All Paws): 3.50 and 3.75 and 4.25 and 1.50 and 4.75 and 4.00 and 2.00
Day 11, 103 mg/kg PO
  % inhibition to Vehicle, Average Paw Score: 12%
Day 11, 103 mg/kg PO, group Mean
  Average Paw Score Per Arthritis Day (All Paws): 3.55
Day 11, 103 mg/kg PO, individual animals, 103 mg/kg
  Average Paw Score Per Arthritis Day (All Paws): 3.50 and 3.75 and 4.00 and 4.25 and 1.50 and 4.75 and 2.00
MT-SYK-03 103 mg/kg PO
  % inhibition to Vehicle, Total AUC Sum (d1-11): 18%
MT-SYK-03 103 mg/kg PO, Day 1, group mean
  Summed Prophylactic (Non-Enrollment) Paw Score: 0.00
MT-SYK-03 103 mg/kg PO, Day 1, individual animals
  Summed Prophylactic (Non-Enrollment) Paw Score: 0
MT-SYK-03 103 mg/kg PO, Day 2
  % inhibition to Vehicle, Summed Prophylactic (Non-Enrollment) Paw Score: 15%
MT-SYK-03 103 mg/kg PO, Day 2, group mean
  Summed Prophylactic (Non-Enrollment) Paw Score: 2.20
MT-SYK-03 103 mg/kg PO, Day 2, individual animals, 103 mg/kg
  Summed Prophylactic (Non-Enrollment) Paw Score: 2 and 4 and 1 and 3 and 0
MT-SYK-03 103 mg/kg PO, Day 3
  % inhibition to Vehicle, Summed Prophylactic (Non-Enrollment) Paw Score: 23%
MT-SYK-03 103 mg/kg PO, Day 3, group mean
  Summed Prophylactic (Non-Enrollment) Paw Score: 3.60
MT-SYK-03 103 mg/kg PO, Day 3, individual animals, 103 mg/kg
  Summed Prophylactic (Non-Enrollment) Paw Score: 5 and 3 and 2 and 1 and 6 and 4
MT-SYK-03 103 mg/kg PO, Day 4
  % inhibition to Vehicle, Summed Prophylactic (Non-Enrollment) Paw Score: 19%
MT-SYK-03 103 mg/kg PO, Day 4, group mean
  Summed Prophylactic (Non-Enrollment) Paw Score: 5.20
MT-SYK-03 103 mg/kg PO, Day 4, individual animals, 103 mg/kg
  Summed Prophylactic (Non-Enrollment) Paw Score: 7 and 3 and 5 and 6 and 1 and 4
MT-SYK-03 103 mg/kg PO, Day 5
  % inhibition to Vehicle, Summed Prophylactic (Non-Enrollment) Paw Score: 16%
MT-SYK-03 103 mg/kg PO, Day 5, group mean
  Summed Prophylactic (Non-Enrollment) Paw Score: 6.10
MT-SYK-03 103 mg/kg PO, Day 5, individual animals, 103 mg/kg
  Summed Prophylactic (Non-Enrollment) Paw Score: 8 and 3 and 6 and 1 and 10 and 7 and 4
MT-SYK-03 103 mg/kg PO, Day 6
  % inhibition to Vehicle, Summed Prophylactic (Non-Enrollment) Paw Score: 16%
MT-SYK-03 103 mg/kg PO, Day 6, group mean
  Summed Prophylactic (Non-Enrollment) Paw Score: 6.40
MT-SYK-03 103 mg/kg PO, Day 6, individual animals, 103 mg/kg
  Summed Prophylactic (Non-Enrollment) Paw Score: 8 and 3 and 9 and 6 and 1 and 10 and 5
MT-SYK-03 103 mg/kg PO, Day 7
  % inhibition to Vehicle, Summed Prophylactic (Non-Enrollment) Paw Score: 17%
MT-SYK-03 103 mg/kg PO, Day 7, group mean
  Summed Prophylactic (Non-Enrollment) Paw Score: 6.50
MT-SYK-03 103 mg/kg PO, Day 7, individual animals, 103 mg/kg
  Summed Prophylactic (Non-Enrollment) Paw Score: 8 and 3 and 9 and 7 and 1 and 10 and 6 and 5
MT-SYK-03 103 mg/kg PO, Day 8
  % inhibition to Vehicle, Summed Prophylactic (Non-Enrollment) Paw Score: 20%
MT-SYK-03 103 mg/kg PO, Day 8, group mean
  Summed Prophylactic (Non-Enrollment) Paw Score: 6.50
MT-SYK-03 103 mg/kg PO, Day 8, individual animals, 103 mg/kg
  Summed Prophylactic (Non-Enrollment) Paw Score: 8 and 3 and 9 and 7 and 1 and 10 and 6 and 5
MT-SYK-03 103 mg/kg PO, Day 9
  % inhibition to Vehicle, Summed Prophylactic (Non-Enrollment) Paw Score: 20%
MT-SYK-03 103 mg/kg PO, Day 9, group mean
  Summed Prophylactic (Non-Enrollment) Paw Score: 6.80
MT-SYK-03 103 mg/kg PO, Day 9, individual animals, 103 mg/kg
  Summed Prophylactic (Non-Enrollment) Paw Score: 8 and 3 and 10 and 2 and 6 and 5
MT-SYK-03 103 mg/kg PO, Day 10
  % inhibition to Vehicle, Summed Prophylactic (Non-Enrollment) Paw Score: 18%
MT-SYK-03 103 mg/kg PO, Day 10, group mean
  Summed Prophylactic (Non-Enrollment) Paw Score: 7.20
MT-SYK-03 103 mg/kg PO, Day 10, individual animals, 103 mg/kg
  Summed Prophylactic (Non-Enrollment) Paw Score: 9 and 3 and 11 and 8 and 2 and 10 and 7 and 5
